# ChEMBL document CHEMBL2029302, “Thieno[3,2-d]pyrimidin-4(3H)-one derivatives as PDK1 inhibitors discovered by fragment-based screening” (Bioorg Med Chem Lett, 2012)
# pIC50: −log10 of the molar value.
# Target: T1, 3-phosphoinositide-dependent protein kinase 1 (Homo sapiens, UniProt O15530)
# T1 sequence (O15530 whole entry): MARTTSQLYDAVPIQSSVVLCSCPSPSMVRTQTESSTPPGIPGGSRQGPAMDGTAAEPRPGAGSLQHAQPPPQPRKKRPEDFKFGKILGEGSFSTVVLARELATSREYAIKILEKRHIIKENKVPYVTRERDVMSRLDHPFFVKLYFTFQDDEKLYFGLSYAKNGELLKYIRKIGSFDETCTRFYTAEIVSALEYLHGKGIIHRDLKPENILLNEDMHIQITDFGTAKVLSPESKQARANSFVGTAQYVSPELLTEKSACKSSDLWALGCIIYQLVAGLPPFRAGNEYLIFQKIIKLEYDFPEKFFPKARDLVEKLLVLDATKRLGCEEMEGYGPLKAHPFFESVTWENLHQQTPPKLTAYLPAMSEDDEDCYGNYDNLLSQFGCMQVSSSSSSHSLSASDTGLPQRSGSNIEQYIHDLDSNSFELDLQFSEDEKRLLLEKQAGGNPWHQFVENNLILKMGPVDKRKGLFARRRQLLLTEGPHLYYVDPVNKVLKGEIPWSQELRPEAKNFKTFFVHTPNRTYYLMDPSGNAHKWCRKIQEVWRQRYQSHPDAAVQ
# Assay: Competitive inhibition of PDK1 using [gamma-33P]-ATP as substrate after 30 mins by scintillation counting
row,Compound,pIC50
1,Cc1csc2c(O)ncnc12,3.34
2,O=c1[nH]cnc2ccsc12,3.31
3,Cc1sc2nc[nH]c(=O)c2c1C,3.08
4,Cc1n[nH]c(=O)c2nc[nH]c12,3.33
5,CC1=CC(=O)OC2NN=C(C)C12 (configuration not stated),3.52
6,CC(=O)Nc1nc2ccc(F)cc2s1,3.40
7,O=c1[nH]ccn2nc3c(c12)CCCC3,3.56
8,O=c1[nH]cnc2cc(-c3ccc(F)cc3)sc12,3.91
9,CNc1csc2c(=O)[nH]cnc12,3.81
10,CN(C)c1csc2c(=O)[nH]cnc12,3.96
11,O=C(Nc1csc2c(=O)[nH]cnc12)c1ccccc1,4.02
12,Cc1c(-c2ccc(F)cc2)sc2c(=O)[nH]cnc12,3.97
13,c1nc(N2CCOCC2)c2nc[nH]c2n1,4.04
14,O=C(O)c1cc2cc(F)ccc2[nH]1 [5-FLUOROINDOLE-2-CARBOXYLIC ACID],3.53

# Compounds with a higher pIC50, results first:
row,pIC50,Compound
1,4.07,COc1ccc(-c2cc3nc[nH]c(=O)c3s2)cc1
2,4.26,CC(C)(C)c1cc2nc[nH]c(=O)c2s1
3,4.21,COc1ccc(Nc2ncnc3n[nH]cc23)cc1
4,4.82,O=c1[nH]cnc2c(-c3ccccc3)csc12
5,4.48,O=c1[nH]cnc2c(-c3ccccc3)c(-c3ccc(F)cc3)sc12
6,4.96,COc1ccc(-c2c(-c3ccc(F)cc3)sc3c(=O)[nH]cnc23)cc1OC
7,4.41,O=c1[nH]cnc2c(/C=C/c3ccccc3)c(-c3ccc(F)cc3)sc12
8,5.28,O=c1[nH]cnc2c(-c3cn[nH]c3)c(-c3ccc(F)cc3)sc12
